Experimental data: ChEMBL document CHEMBL3817792, “Targeting the Motion of Shikimate Kinase: Development of Competitive Inhibitors that Stabilize an Inactive Open Conformation of the Enzyme” (J Med Chem, 2016)

What was measured:
[1] = Inhibition of Mycobacterium tuberculosis shikimate kinase
[2] = target: Shikimate kinase (Helicobacter pylori (strain ATCC 700392 / 26695) (Campylobacterpylori), UniProt P56073); assay: Inhibition of Helicobacter pylori shikimate kinase using shikimic acid substrate by measuring oxidation of NADH to NAD by pyruvate kinase and lactate dehydrogenase coupled enzyme assay based Dixon plot analysis
Chain of Shikimate kinase (P56073 whole entry): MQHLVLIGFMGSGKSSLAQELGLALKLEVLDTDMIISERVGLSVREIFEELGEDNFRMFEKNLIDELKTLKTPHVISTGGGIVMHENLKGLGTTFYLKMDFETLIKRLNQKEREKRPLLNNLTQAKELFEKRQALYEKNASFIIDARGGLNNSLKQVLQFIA

[3] = Inhibition of Mycobacterium tuberculosis shikimate kinase using shikimic acid substrate by measuring oxidation of NADH to NAD by pyruvate kinase and lactate dehydrogenase coupled enzyme assay based Dixon plot analysis
[4] = tested on: Helicobacter pylori; assay: Antimicrobial activity against Helicobacter pylori clinical isolates assessed as inhibition of visible microbial growth incubated for 6 days by agar dilution method; format: functional; settings: 144 h

| SMILES | Ki [1] [µM] | Ki [2] [µM] | Ki [3] [µM] | MIC [4] [µg/mL] |
| --- | --- | --- | --- | --- |
| N[C@H]1C=C(C(=O)O)C[C@@H](O)[C@@H]1O | 65 |  |  |  |
| N[C@H]1C=C(C(=O)O)C[C@@H](OCc2ccc3ccccc3c2)[C@@H]1O |  | > 800 | > 2000 |  |
| Cc1ccc(CO[C@@H]2CC(C(=O)O)=C[C@@H](O)[C@H]2O)cc1 |  | 10.9 | 166 |  |
| COC(=O)C1=C[C@@H](O)[C@H](O)[C@H](OCc2cccc([N+](=O)[O-])c2)C1 |  |  |  | 128 |
| O=C(O)C1=C[C@@H](O)[C@@H](O)[C@H](OCc2cccc([N+](=O)[O-])c2)C1 |  | 0.46 | 10 |  |
| COc1cccc(CO[C@@H]2CC(C(=O)O)=C[C@@H](O)[C@H]2O)c1 |  | 1 | 135 |  |
| COC(=O)C1=C[C@@H](O)[C@@H](O)[C@H](n2cc(Cc3ccccc3)nn2)C1 |  |  |  | 256 |
| COC(=O)C1=C[C@@H](O)[C@@H](O)[C@H](OCc2ccc3sccc3c2)C1 |  |  |  | 4 |
| O=C(O)C1=C[C@@H](O)[C@@H](O)[C@H](n2cc(COc3ccccc3)nn2)C1 |  | 67 | > 2000 |  |
| Cc1cccc(CO[C@@H]2CC(C(=O)O)=C[C@@H](O)[C@H]2O)c1 |  | 2.1 | 109 |  |
| O=C(O)C1=C[C@@H](O)[C@@H](O)[C@H](OCc2ccccc2)C1 |  | 3 | 360 |  |
| O=C(O)C1=C[C@@H](O)[C@@H](O)[C@H](OCc2ccc3sccc3c2)C1 |  | 0.56 | 43 |  |
| COC(=O)C1=C[C@H](N)[C@@H](O)[C@H](OCc2ccc3ccccc3c2)C1 |  |  |  | 64 |
| O=C(O)C1=C[C@@H](O)[C@@H](O)[C@H](OCc2c(F)c(F)c(F)c(F)c2F)C1 |  | 41 | 710 |  |
| N[C@H]1C=C(C(=O)O)C[C@@H](OCc2ccc3sccc3c2)[C@@H]1O |  | 535 | 415 |  |
| COC(=O)C1=C[C@H](N)[C@@H](O)[C@H](OCc2ccc3sccc3c2)C1 |  |  |  | 256 |
| COC(=O)C1=C[C@@H](O)[C@@H](O)[C@H](n2cc(COc3ccccc3)nn2)C1 |  |  |  | 128 |
| O=C(O)C1=C[C@@H](O)[C@@H](O)[C@H](OCc2cccc(F)c2)C1 |  | 1.28 | 180 |  |
| O=C(O)C1=C[C@@H](O)[C@@H](O)[C@H](OCc2ccc3ccccc3c2)C1 |  | 1.8 | 22 |  |
| O=C(O)C1=C[C@@H](O)[C@@H](O)[C@H](n2cc(Cc3ccccc3)nn2)C1 |  | 95 | > 2000 |  |
| CC1(C)S[C@@H]2[C@H](NC(=O)[C@H](N)c3ccccc3)C(=O)N2[C@H]1C(=O)O [AMPICILLIN] |  |  |  | 1 |
